Assay results reported in patent publication US20080096807A1, “Cyclic vasoactive intestinal peptide receptor-2 agonists” (priority 2006, published 2008).
pEC50: −log10 of the molar value. Bridge positions count the residues as written; N and C are the ends. Square brackets hold non-standard residues; d marks the D form. Peptide text beside a SMILES is read from it. ξ: configuration not given here. Thr(3ξ) = CC(O)[C@H](N)C(=O)O; αMeV = CC(C)[C@](C)(N)C(=O)O; Nle = CCCC[C@H](N)C(=O)O

Columns and labels:
VPAC2 receptor = target: T1, VPAC2 receptor (Homo sapiens, UniProt P41587); assay: Sup-T1 cAMP agonist assay; assay type: cell-based; settings: human T-lymphoid cell line Sup-T1 expressing VPAC2 receptor; cAMP EIA; 5 min at room temperature; read-out: Sup-T1 cAMP EC50
T1 construct: The human T-lymphoid cell line Sup-Ti, which expresses the VPAC2 receptor; host or cells: Sup-T1 (Sup-Ti [sic]) human T-lymphoid cell line
T1 sequence (P41587 24-438): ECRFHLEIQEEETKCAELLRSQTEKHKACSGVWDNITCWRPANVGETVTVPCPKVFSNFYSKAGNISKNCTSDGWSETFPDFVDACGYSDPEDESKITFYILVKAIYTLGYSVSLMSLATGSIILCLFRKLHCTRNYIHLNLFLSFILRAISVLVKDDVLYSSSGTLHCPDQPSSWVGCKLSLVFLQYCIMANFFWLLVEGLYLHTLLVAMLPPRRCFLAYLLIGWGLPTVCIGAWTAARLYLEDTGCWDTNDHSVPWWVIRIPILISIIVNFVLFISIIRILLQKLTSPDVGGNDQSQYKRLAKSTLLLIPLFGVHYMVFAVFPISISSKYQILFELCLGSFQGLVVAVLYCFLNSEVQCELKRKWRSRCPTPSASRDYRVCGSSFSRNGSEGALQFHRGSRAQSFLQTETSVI
Description: The human T-lymphoid cell line Sup-Ti, which expresses the VPAC2 receptor, was obtained from the American Type Culture Collection (ATCC, CRL-1942) and maintained in growth medium at densities between 0.2 and 2×10^6 cells/ml in a 37° C. CO2 incubator. The growth medium was RPMI 1640 (Invitrogen) supplemented with 25 mM HEPES buffer and 10% fetal bovine serum (Gemini Bioproducts).
To evaluate VPAC2 agonist compound activity, cells in log-phase growth were washed once with growth medium at room temperature and plated into 96-well plates at a density of 4×10^4 cells per well in 150 uL of growth medium. Fifty uL of the compounds to be tested, prepared at appropriate concentrations in growth medium, were then added to designated wells. After 5 min at room temperature, the cells were lysed by adding 25 uL of lysis reagent 1A (cAMP Biotrak EIA system, Amersham Biosciences, RPN225) to each well. The 96-well plates were kept at room temperature for 10 min with shaking and then stored at 4° C. until analysis for cAMP (within 2 hr).
Cyclic AMP levels were determined in 100 uL of each lysate using the cAMP Biotrak Enzymeimmunoassay (EIA) kit according to the manufacture's instructions (Amersham Biosciences, RPN225). The activity of each VPAC2 agonist compound (EC50 value) was estimated by fitting the 7-concentration dose response data to a sigmoidal dose-response equation provided by the GraphPad Prism program (GraphPad Software, Inc.).

[1] = target: T2, human neutrophil elastase (Homo sapiens, UniProt P08246); assay: Peptide stability to neutrophil elastase (RP HPLC ESI MS); settings: halftime with human neutrophil elastase 1 to 2 μg/mL in PBS, ambient temperature, normalized to halftime of the reference standard
T2 sequence (P08246 30-247 limits assumed): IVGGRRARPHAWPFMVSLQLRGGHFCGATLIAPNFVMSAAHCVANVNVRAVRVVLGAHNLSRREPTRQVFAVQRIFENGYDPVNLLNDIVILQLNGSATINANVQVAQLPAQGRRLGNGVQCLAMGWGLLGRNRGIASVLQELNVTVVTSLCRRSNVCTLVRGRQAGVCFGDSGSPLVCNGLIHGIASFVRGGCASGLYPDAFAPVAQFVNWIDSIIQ

Row | pEC50 (VPAC2 receptor) | Relative elastase stability [1] | Structure (SMILES)
1 | 7.01 | 4.5 | CCCC[C@H](NC(=O)[C@H](CCC(N)=O)NC(=O)[C@H](CCCCN)NC(=O)[C@H](CCCNC(=N)N)NC(=O)[C@H](CC(C)C)NC(=O)[C@H](CCCCN)NC(=O)[C@@H](NC(=O)[C@H](Cc1ccc(O)cc1)NC(=O)[C@H](CC(N)=O)NC(=O)[C@H](CCC(=O)O)NC(=O)[C@@H](NC(=O)[C@H](Cc1ccccc1)NC(=O)[C@H](CC(=O)O)NC(=O)[C@H](C)NC(=O)[C@H](CC(=O)O)NC(=O)[C@H](CO)NC(=O)[C@H](Cc1c[nH]cn1)NC(C)=O)C(C)O)C(C)O)C(=O)N[C@@H](C)C(=O)N[C@@H](C)C(=O)N[C@@H](CCCCN)C(=O)N[C@H]1CCCCNC(=O)C[C@@H](C(=O)N[C@@H](CC(C)C)C(=O)N[C@@H](CCCCN)C(=O)N[C@@H](CCCCN)C(=O)NCC(=O)NCC(=O)N[C@H](C(N)=O)C(C)O)NC(=O)[C@H](CC(N)=O)NC(=O)[C@H](CC(C)C)NC(=O)[C@H](Cc2ccc(O)cc2)NC1=O (stereo partly shown) [Example 3] (Ac-HSDADF[Thr(3ξ)]ENY[Thr(3ξ)]KLRKQ[Nle]AAKKYLNDLKKGG[Thr(3ξ)]-NH2; lactam 21-25)
2 | 7.07 | 3.9 | CCCC[C@H](NC(=O)[C@H](CCC(N)=O)NC(=O)[C@H](CCCCN)NC(=O)[C@H](CCCNC(=N)N)NC(=O)[C@H](CC(C)C)NC(=O)[C@H](CCCCN)NC(=O)[C@@H](NC(=O)[C@H](Cc1ccc(O)cc1)NC(=O)[C@H](CC(N)=O)NC(=O)[C@H](CCC(=O)O)NC(=O)[C@@H](NC(=O)[C@H](Cc1ccccc1)NC(=O)[C@H](CCC(N)=O)NC(=O)[C@H](C)NC(=O)[C@H](CC(=O)O)NC(=O)[C@H](CO)NC(=O)[C@H](Cc1c[nH]cn1)NC(C)=O)C(C)O)C(C)O)C(=O)N[C@@H](C)C(=O)N[C@@H](C)C(=O)N[C@@H](CCCCN)C(=O)N[C@H]1CCCCNC(=O)C[C@@H](C(=O)N[C@@H](CC(C)C)C(=O)N[C@@H](CCCCN)C(=O)N[C@@H](CCCCN)C(=O)NCC(=O)NCC(=O)N[C@H](C(N)=O)C(C)O)NC(=O)[C@H](CC(N)=O)NC(=O)[C@H](CC(C)C)NC(=O)[C@H](Cc2ccc(O)cc2)NC1=O (stereo partly shown) [Example 4] (Ac-HSDAQF[Thr(3ξ)]ENY[Thr(3ξ)]KLRKQ[Nle]AAKKYLNDLKKGG[Thr(3ξ)]-NH2; lactam 21-25)
3 | 5.92 | 4.9 | CCCC[C@H](NC(=O)[C@H](CCC(N)=O)NC(=O)[C@H](CCCCN)NC(=O)[C@H](CCCNC(=N)N)NC(=O)[C@H](CC(C)C)NC(=O)[C@H](CCCCN)NC(=O)[C@@H](NC(=O)[C@H](Cc1ccc(O)cc1)NC(=O)[C@H](CC(N)=O)NC(=O)[C@H](CCC(=O)O)NC(=O)[C@@H](NC(=O)[C@H](Cc1ccccc1)NC(=O)[C@@H]1CCCN1C(=O)[C@H](C)NC(=O)[C@H](CC(=O)O)NC(=O)[C@H](CO)NC(=O)[C@H](Cc1c[nH]cn1)NC(C)=O)C(C)O)C(C)O)C(=O)N[C@@H](C)C(=O)N[C@@H](C)C(=O)N[C@@H](CCCCN)C(=O)N[C@H]1CCCCNC(=O)C[C@@H](C(=O)N[C@@H](CC(C)C)C(=O)N[C@@H](CCCCN)C(=O)N[C@@H](CCCCN)C(=O)NCC(=O)NCC(=O)N[C@H](C(N)=O)C(C)O)NC(=O)[C@H](CC(N)=O)NC(=O)[C@H](CC(C)C)NC(=O)[C@H](Cc2ccc(O)cc2)NC1=O (stereo partly shown) [Example 5] (Ac-HSDAPF[Thr(3ξ)]ENY[Thr(3ξ)]KLRKQ[Nle]AAKKYLNDLKKGG[Thr(3ξ)]-NH2; lactam 21-25)
4 |  | 3.4 | CCCC[C@H](NC(=O)[C@H](CCC(N)=O)NC(=O)[C@H](CCCCN)NC(=O)[C@H](CCCNC(=N)N)NC(=O)[C@H](CC(C)C)NC(=O)[C@H](CCCCN)NC(=O)[C@@H](NC(=O)[C@H](Cc1ccc(O)cc1)NC(=O)[C@H](CC(N)=O)NC(=O)[C@H](CCC(=O)O)NC(=O)[C@@H](NC(=O)[C@H](Cc1ccccc1)NC(=O)[C@@](C)(NC(=O)[C@H](C)NC(=O)[C@H](CC(=O)O)NC(=O)[C@H](CO)NC(=O)[C@H](Cc1c[nH]cn1)NC(C)=O)C(C)C)C(C)O)C(C)O)C(=O)N[C@@H](C)C(=O)N[C@@H](C)C(=O)N[C@@H](CCCCN)C(=O)N[C@H]1CCCCNC(=O)C[C@@H](C(=O)N[C@@H](CC(C)C)C(=O)N[C@@H](CC(C)C)C(=O)N[C@@H](CCCCN)C(=O)NCC(=O)NCC(=O)N[C@H](C(N)=O)C(C)O)NC(=O)[C@H](CC(N)=O)NC(=O)[C@H](CC(C)C)NC(=O)[C@H](Cc2ccc(O)cc2)NC1=O (stereo partly drawn) [Example 20, Ac-His-Ser-Asp-Ala-MeVal-Phe-Thr-Glu-Asn-Tyr-thr-Lys-Leu-Arg-Lys-Gln-Nle-Ala-Ala-Lys-Lys-Tyr-Leu-Asn-Asp-Leu-Leu-Lys-Gly-Gly-Thr-NH2] (Ac-HSDA[αMeV]F[Thr(3ξ)]ENY[Thr(3ξ)]KLRKQ[Nle]AAKKYLNDLLKGG[Thr(3ξ)]-NH2; lactam 21-25)
5 |  | 5.7 | CCCC[C@H](NC(=O)[C@H](CCC(N)=O)NC(=O)[C@H](CCCCN)NC(=O)[C@H](CCCNC(=N)N)NC(=O)[C@H](CC(C)C)NC(=O)[C@H](CCCCN)NC(=O)[C@@H](NC(=O)[C@H](Cc1ccc(O)cc1)NC(=O)[C@H](CC(N)=O)NC(=O)[C@H](CCC(=O)O)NC(=O)[C@@H](NC(=O)[C@H](Cc1ccccc1)NC(=O)[C@@](C)(NC(=O)[C@H](C)NC(=O)[C@H](CC(=O)O)NC(=O)[C@H](C)NC(=O)[C@H](Cc1c[nH]cn1)NC(C)=O)C(C)C)C(C)O)C(C)O)C(=O)N[C@@H](C)C(=O)N[C@@H](C)C(=O)N[C@@H](CCCCN)C(=O)N[C@H]1CCCCNC(=O)C[C@@H](C(=O)N[C@@H](CC(C)C)C(=O)N[C@@H](CCCCN)C(=O)N[C@@H](CCCCN)C(=O)NCC(=O)NCC(=O)N[C@H](C(N)=O)C(C)O)NC(=O)[C@H](CC(N)=O)NC(=O)[C@H](CC(C)C)NC(=O)[C@H](Cc2ccc(O)cc2)NC1=O (stereo partly drawn) [Example 21, Ac-His-Ala-Asp-Ala-MeVal-Phe-Thr-Glu-Asn-Tyr-Thr-Lys-Leu-Arg-Lys-Gln-Nle-Ala-Ala-Lys-Lys-Tyr-Leu-Asn-Asp-Leu-Lys-Lys-Gly-Gly-Thr-NH2]
6 |  | 1.8 | CCCC[C@H](NC(=O)[C@H](CCCNC(=N)N)NC(=O)[C@H](CCCCN)NC(=O)[C@H](CCCNC(=N)N)NC(=O)[C@H](CC(C)C)NC(=O)[C@H](CCCCN)NC(=O)[C@@H](NC(=O)[C@H](Cc1ccc(O)cc1)NC(=O)[C@H](CC(N)=O)NC(=O)[C@H](CCC(=O)O)NC(=O)[C@@H](NC(=O)[C@H](Cc1ccccc1)NC(=O)[C@@](C)(NC(=O)[C@H](C)NC(=O)[C@H](CC(=O)O)NC(=O)[C@H](CO)NC(=O)[C@H](Cc1c[nH]cn1)NC(C)=O)C(C)C)C(C)O)C(C)O)C(=O)N[C@@H](C)C(=O)N[C@@H](C)C(=O)N[C@@H](CCCCN)C(=O)N[C@H]1CCCCNC(=O)C[C@@H](C(=O)N[C@@H](CC(C)C)C(=O)N[C@@H](CCCCN)C(=O)N[C@@H](CCCCN)C(=O)NCC(=O)NCC(=O)N[C@H](C(N)=O)C(C)O)NC(=O)[C@H](CC(N)=O)NC(=O)[C@H](CC(C)C)NC(=O)[C@H](Cc2ccc(O)cc2)NC1=O (stereo partly drawn) [Example 22, Ac-His-Ser-Asp-Ala-MeVal-Phe-Thr-Glu-Asn-Tyr-Thr-Lys-Leu-Arg-Lys-Arg-Nle-Ala-Ala-Lys-Lys-Tyr-Leu-Asn-Asp-Leu-Lys-Lys-Gly-Gly-Thr-NH2]
7 |  | 3.6 | CCCC[C@H](NC(=O)[C@H](CCC(N)=O)NC(=O)[C@H](CCCCN)NC(=O)[C@H](CCCNC(=N)N)NC(=O)[C@H](CC(C)C)NC(=O)[C@H](CCCCN)NC(=O)[C@@H](NC(=O)[C@H](Cc1ccc(O)cc1)NC(=O)[C@H](CC(N)=O)NC(=O)[C@H](CCC(=O)O)NC(=O)[C@@H](NC(=O)[C@H](Cc1ccccc1)NC(=O)[C@@](C)(NC(=O)[C@H](C)NC(=O)[C@H](CC(=O)O)NC(=O)[C@H](C)NC(=O)[C@H](Cc1c[nH]cn1)NC(C)=O)C(C)C)C(C)O)C(C)O)C(=O)N[C@@H](C)C(=O)N[C@@H](C)C(=O)N[C@@H](CCCCN)C(=O)N[C@H]1CCCCNC(=O)C[C@@H](C(=O)N[C@@H](CC(C)C)C(=O)N[C@@H](CC(C)C)C(=O)N[C@@H](CCCCN)C(=O)NCC(=O)NCC(=O)N[C@H](C(N)=O)C(C)O)NC(=O)[C@H](CC(N)=O)NC(=O)[C@H](CC(C)C)NC(=O)[C@H](Cc2ccc(O)cc2)NC1=O (stereo partly drawn) [Example 23, Ac-His-Ala-Asp-Ala-MeVal-Phe-Thr-Glu-Asn-Tyr-Thr-Lys-Leu-Arg-Lys-Gln-Nle-Ala-Ala-Lys-Lys-Tyr-Leu-Asn-Asp-Leu-Leu-Lys-Gly-Gly-Thr-NH2]
